The record followed here is patent publication US9758527B2, “Cyclohexene derivative, preparation method therefor, and pharmaceutical composition for preventing or treating metabolic diseases, containing same as active ingredient” (HYUNDAI PHARM CO., LTD., priority 2014, dated 2017).

In this assay the target is T1, G protein-coupled receptor 119 (GPR-119) (Mesocricetus auratus, UniProt A0A1U8CD06).
T1 construct: hamster-derived β-cells containing G protein-coupled receptor 119 (GPR-119), HIT-T15 cells; host or cells: HIT-T15 (hamster pancreatic β-cells)
T1 sequence (A0A1U8CD06 1-334): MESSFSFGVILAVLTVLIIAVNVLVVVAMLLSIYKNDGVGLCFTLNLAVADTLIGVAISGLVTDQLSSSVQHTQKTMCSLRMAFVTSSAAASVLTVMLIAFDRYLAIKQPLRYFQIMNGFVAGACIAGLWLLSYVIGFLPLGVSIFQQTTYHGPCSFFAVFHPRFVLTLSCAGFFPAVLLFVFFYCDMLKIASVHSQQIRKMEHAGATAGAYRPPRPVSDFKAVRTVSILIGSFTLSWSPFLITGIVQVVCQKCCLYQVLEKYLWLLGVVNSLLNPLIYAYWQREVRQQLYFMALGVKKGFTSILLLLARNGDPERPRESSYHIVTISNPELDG
The experiment in a line: Evaluation of cAMP activity in HIT-T15 cells (HTRF cAMP dynamic kit). It is filed as cell-based, hamster. Particulars: cAMP activation. Here is the method:
To check whether the cyclohexene derivatives according to the present invention activate cyclic adenosine monophosphate (cAMP), experiments were carried out, as follows.
The HIT-T15 cells were plated on a 96-well plate at 60,000 cells per well. On the next day of plating, the cells were treated with a varying concentration of each of the example compounds according to the present invention, and incubated at 37° C. for an hour. In this case, each of the treated compounds was used at six concentrations, ranging from […], to treat the cells.
The cyclic adenosine monophosphate (cAMP) activity was measured according to the manufacturer's instruction using a cAMP dynamic kit commercially available from Cis Bio Inc. (Bedford, Mass.). The cells were lysed, and a level of cAMP was determined by a competitive immunoassay using D2-labeled cAMP and a cryptate-labeled anti-cAMP antibody. Fluorescence was read in Flex Station (Molecular Devices). […] Unlabeled cAMP in the cell lysate competed with the D2-labeled cAMP against the cryptate-labeled antibody. Since a decrease in the measured intensity of the FRET signals represents a level of cAMP in the cells, the cAMP activities of the compounds are calculated as a change in FRET signals by adjusting an amount of dimethyl sulfoxide (DMSO).

Where [1] appears, read: 1 h at 37° C., six concentrations, read-out: EC50.

pEC50: −log10 of the molar value. Read-outs that look alike come from different tables or passages of the source. Some results are limits rather than exact numbers.

In the case of `CC(C)c1noc(N2CCC(COc3ccc(C4=CCC(C(=O)N5CC[C@@H](F)C5)CC4)cc3)CC2)n1` (stereo partly drawn) [Example 54, ((R)-3-fluoropyrrolidin-1-yl)(4-(4-((1-(3-isopropyl-1,2,4-oxadiazol-5-yl)piperidin-4-yl)methoxy)phenyl)cyclohex-3-enyl)methanone], the pEC50 under setting [1] was 7.38 and the pEC50 (read-out: EC50 value) is ≥ 7.30.
Consider `CCc1cnc(N2CCC(COc3ccc(C4=CCC(C(=O)N5CCN(CC)CC5)CC4)cc3)CC2)nc1` (stereo not shown) [Example 55, (4-ethylpiperazin-1-yl)(4-(4-((1-(5-ethylpyrimidin-2-yl)piperidin-4-yl)methoxy)phenyl)cyclohex-3-enyl)methanone], for which the pEC50 under setting [1] was 7.00.
Consider `CC(C)c1noc(N2CCC(COc3ccc(C4=CCC(C(=O)N5CCCCC5)CC4)cc3)CC2)n1` (stereo not shown) [Example 56, (4-(4-((1-(3-isopropyl-1,2,4-oxadiazol-5-yl)piperidin-4-yl)methoxy)phenyl)cyclohex-3-enyl)(piperidin-1-yl)methanone], for which the pEC50 under setting [1] was 7.52 and the pEC50 (read-out: EC50 value) is ≥ 7.30.
The matching figures for `CC(C)(C)OC(=O)N1CCC(COc2ccc(C3=CCC(C(=O)N4CC[C@H](F)C4)CC3)cc2F)CC1` (stereo partly drawn) [Example 57, tert-butyl 4-((2-fluoro-4-(4-((S)-3-fluoropyrrolidine-1-carbonyl)cyclohex-1-enyl)phenoxy)methyl)piperidine-1-carboxylate]: 8.10 and ≥ 7.30.
In the case of `CC(C)(C)OC(=O)N1CCC(COc2ccc(C3=CCC(C(=O)N4CC[C@@H](F)C4)CC3)cc2F)CC1` (stereo partly drawn) [Example 58, tert-butyl 4-((2-fluoro-4-(4-((R)-3-fluoropyrrolidine-1-carbonyl)cyclohex-1-enyl)phenoxy)methyl)piperidine-1-carboxylate], for the setting “read-out: EC50 value”, the pEC50 is ≥ 7.30.
Regarding `C[C@@H](CO)NC(=O)C1CC=C(c2ccc(OCC3CCN(C(=O)OC(C)(C)C)CC3)c(F)c2)CC1` (stereo partly drawn) [Example 59, tert-butyl 4-((2-fluoro-4-(4-((S)-1-hydroxypropan-2-ylcarbamoyl)cyclohex-1-enyl)phenoxy)methyl)piperidine-1-carboxylate], the pEC50 under setting [1] was 7.11.
Take `C[C@H](CO)NC(=O)C1CC=C(c2ccc(OCC3CCN(C(=O)OC(C)(C)C)CC3)c(F)c2)CC1` (stereo partly drawn) [Example 60, tert-butyl 4-((2-fluoro-4-(4-((R)-1-hydroxypropan-2-ylcarbamoyl)cyclohex-1-enyl)phenoxy)methyl)piperidine-1-carboxylate]: the pEC50 under setting [1] is 7.40 and the pEC50 (read-out: EC50 value) is ≥ 7.30.
For `C[C@H](O)CNC(=O)C1CC=C(c2ccc(OCC3CCN(C(=O)OC(C)(C)C)CC3)c(F)c2)CC1` (stereo partly drawn) [Example 61, tert-butyl 4-((2-fluoro-4-(4-((S)-2-hydroxypropylcarbamoyl)cyclohex-1-enyl)phenoxy)methyl)piperidine-1-carboxylate], the pEC50 was 7.35 under setting [1] and ≥ 7.30 (read-out: EC50 value).
In the case of `C[C@@H](O)CNC(=O)C1CC=C(c2ccc(OCC3CCN(C(=O)OC(C)(C)C)CC3)c(F)c2)CC1` (stereo partly drawn) [Example 62, tert-butyl 4-((2-fluoro-4-(4-((R)-2-hydroxypropylcarbamoyl)cyclohex-1-enyl)phenoxy)methyl)piperidine-1-carboxylate], the negative logarithm of the EC50 (pEC50) under setting [1] was 7.15.
Same read-out and setting: to `CC(C)(C)OC(=O)N1CCC(COc2ccc(C3=CCC(C(=O)NC[C@H](O)CO)CC3)cc2F)CC1` (stereo partly drawn) [Example 63, tert-butyl 4-((4-(4-((S)-2,3-dihydroxypropylcarbamoyl)cyclohex-1-enyl)-2-fluorophenoxy)methyl)piperidine-1-carboxylate] belongs 6.96.
On to `CC(C)(C)OC(=O)N1CCC(COc2ccc(C3=CCC(C(=O)NC[C@@H](O)CO)CC3)cc2F)CC1` (stereo partly drawn) [Example 64, tert-butyl 4-((4-(4-((R)-2,3-dihydroxypropylcarbamoyl)cyclohex-1-enyl)-2-fluorophenoxy)methyl)piperidine-1-carboxylate], for which the pEC50 under setting [1] is 7.30 and the pEC50 (read-out: EC50 value) was ≥ 7.30.
The matching figures for `CC(C)c1noc(N2CCC(COc3ccc(C4=CCC(C(=O)N5CCC5)CC4)cc3)CC2)n1` (stereo not shown) [Example 65, azetidin-1-yl(4-(4-((1-(3-isopropyl-1,2,4-oxadiazol-5-yl)piperidin-4-yl)methoxy)phenyl)cyclohex-3-enyl)methanone]: 7.39 and ≥ 7.30.
The matching figures for `CC(C)c1noc(N2CCC(COc3ccc(C4=CCC(C(=O)N5CCOCC5)CC4)cc3)CC2)n1` (stereo not shown) [Example 66, (4-(4-((1-(3-isopropyl-1,2,4-oxadiazol-5-yl)piperidin-4-yl)methoxy)phenyl)cyclohex-3-enyl)(morpholino)methanone]: 7.74 and ≥ 7.30.
As for `CC(C)(C)OC(=O)N1CCC(COc2ccc(C3=CCC(C(=O)NC(CO)CO)CC3)cc2F)CC1` (stereo not shown) [Example 67, tert-butyl 4-((4-(4-(1,3-dihydroxypropan-2-ylcarbamoyl)cyclohex-1-enyl)-2-fluorophenoxy)methyl)piperidine-1-carboxylate], the pEC50 under setting [1] is 7.22.
With `CC(C)(C)OC(=O)N1CCC(COc2ccc(C3=CCC(C(=O)NC(CO)CO)CC3)cn2)CC1` (stereo not shown) [Example 68, tert-butyl 4-((5-(4-(1,3-dihydroxypropan-2-ylcarbamoyl)cyclohex-1-enyl)pyridin-2-yloxy)methyl)piperidine-1-carboxylate], the pEC50 under setting [1] is 6.52.
Consider `CC(C)(C)OC(=O)N1CCC(COc2ccc(C3=CCC(C(=O)N4CCOCC4)CC3)cn2)CC1` (stereo not shown) [Example 70, tert-butyl 4-((5-(4-(morpholine-4-carbonyl)cyclohex-1-enyl)pyridin-2-yloxy)methyl)piperidine-1-carboxylate], for which the pEC50 under setting [1] was 7.35 and the pEC50 (read-out: EC50 value) is ≥ 7.30.
The matching figures for `CC(C)(C)OC(=O)N1CCC(COc2ccc(C3=CCC(C(=O)N4CCSCC4)CC3)cc2F)CC1` (stereo not shown) [Example 71, tert-butyl 4-((2-fluoro-4-(4-(thiomorpholine-4-carbonyl)cyclohex-1-enyl)phenoxy)methyl)piperidine-1-carboxylate]: 8.27 and ≥ 7.30.
Consider `CC(C)(C)OC(=O)N1CCC(COc2ccc(C3=CCC(C(=O)N4CCSCC4)CC3)cn2)CC1` (stereo not shown) [Example 72, tert-butyl 4-((5-(4-(thiomorpholine-4-carbonyl)cyclohex-1-enyl)pyridin-2-yloxy)methyl)piperidine-1-carboxylate], for which the pEC50 under setting [1] was 7.60 and the pEC50 (read-out: EC50 value) was ≥ 7.30.
The matching figures for `CC(C)(C)OC(=O)N1CCC(COc2ccc(C3=CCC(C(=O)N4CCS(=O)(=O)CC4)CC3)cc2F)CC1` (stereo not shown) [Example 73, tert-butyl 4-((2-fluoro-4-(4-(thiomorpholine-1,1-dioxide-4-carbonyl)cyclohex-1-enyl)phenoxy)methyl)piperidine-1-carboxylate]: 7.96 and ≥ 7.30.
The matching figures for `CC(C)c1noc(N2CCC(COc3ccc(C4=CCC(C(=O)N5CCSCC5)CC4)cc3)CC2)n1` (stereo not shown) [Example 74, (4-(4-((1-(3-isopropyl-1,2,4-oxadiazol-5-yl)piperidin-4-yl)methoxy)phenyl)cyclohex-3-enyl)(thiomorpholino)methanone]: 8.21 and ≥ 7.30.
Consider `CC(C)c1noc(N2CCC(COc3ccc(C4=CCC(C(=O)NCCF)CC4)cc3)CC2)n1` (stereo not shown) [Example 75, N-(2-fluoroethyl)-4-(4-((1-(3-isopropyl-1,2,4-oxadiazol-5-yl)piperidin-4-yl)methoxy)phenyl)cyclohex-3-enecarboxamide], for which, under setting [1], the pEC50 was 6.68.
